Measured values reported in paper PMC11149917, “Translational and Therapeutic Evaluation of RAS-GTP Inhibition by RMC-6236 in RAS-Driven Cancers” (Cancer Discovery, 2024).
Read-outs that look alike come from different tables or passages of the source.

Experiment: Mouse blood and tissue PK (LC/MS-MS)
Assay type: in vivo
Conditions: mouse; for concentration at 2 h / concentration at 24 h / concentration at 4 h / concentration at 8 h / concentration at 48 h / Kp: oral; for concentration at 2 h / concentration at 24 h / concentration at 4 h / concentration at 8 h / concentration at 48 h: read-out: RMC-6236 (nM) Tumor; for Kp: tumor relative to whole blood, read-out: Tumor/Blood AUC Ratio; for AUC(0-t): read-out: Blood AUClast
Procedure: For single-dose PKPD study, mice were randomized and assigned into groups (n = 3/dose/time point). […] Blood and tissues, including the tumor, brain, colon, ear skin, and muscle, were harvested at indicated time points. […] The whole blood, tumor, brain, colon, and ear skin concentrations of RMC-6236 were determined using liquid chromatography–tandem mass spectrometry (LC/MS-MS) methods. […] After thorough mixing and centrifugation, the supernatant was diluted with water or directly analyzed on a Sciex 5500 or Sciex 6500+ triple quadrupole mass spectrometer equipped with an ACQUITY or Shimadzu UPLC system. […] Bioanalysis on blood and tissue samples from xenograft models was run at Pharmaron and Wuxi AppTec. Concentrations reported as below the quantification limit were treated as zero for PK analysis. PK parameters were calculated by noncompartmental analysis of the concentration–time profiles using Phoenix WinNonLin (version 8.3 Certara). Apparent terminal elimination half-life (t1/2) values were calculated as ln(2)/k, where k represents the terminal elimination rate constant. Area under the concentration–time curve (AUC) values were estimated using a linear trapezoidal method. AUClast values were calculated from the dosing time to the last quantifiable concentration. Maximum concentration (Cmax) was recorded as observed.

[1] = BALB/c nude, ear skin, 3 mg/kg, sheet Ear Skin, model Capan-2, study Capan-2 #3_PHA 2023, 3 mg/kg
[2] = BALB/c nude, ear skin, 10 mg/kg, sheet Ear Skin, model Capan-2, study Capan-2 #3_PHA 2023, 10 mg/kg
[3] = BALB/c nude, ear skin, 25 mg/kg, sheet Ear Skin, model Capan-2, study Capan-2 #3_PHA 2023, 25 mg/kg
[4] = BALB/c nude, ear skin, 50 mg/kg, sheet Ear Skin, model Capan-2, study Capan-2 #3_PHA 2023, 50 mg/kg
[5] = BALB/c nude, ear skin, 100 mg/kg, sheet Ear Skin, model Capan-2, study Capan-2 #3_PHA 2023, 100 mg/kg
[6] = BALB/c nude, tumor, 0.3 mg/kg, Capan-2, study Capan-2 #3_PHA 2020, 0.3 mg/kg
[7] = BALB/c nude, tumor, 3 mg/kg, Capan-2, study Capan-2 #3_PHA 2020, 3 mg/kg
[8] = BALB/c nude, tumor, 3 mg/kg, Capan-2, study Capan-2 #3_PHA 2023, 3 mg/kg
[9] = BALB/c nude, tumor, 10 mg/kg, Capan-2, study Capan-2 #3_PHA 2020, 10 mg/kg
[10] = BALB/c nude, tumor, 10 mg/kg, Capan-2, study Capan-2 #3_PHA 2023, 10 mg/kg
[11] = BALB/c nude, tumor, 10 mg/kg, sheet colon, Capan-2, Capan-2 #3_PHA 2023, 10 mg/kg
[12] = BALB/c nude, tumor, 25 mg/kg, Capan-2, study Capan-2 #3_PHA 2020, 25 mg/kg
[13] = BALB/c nude, tumor, 25 mg/kg, Capan-2, study Capan-2 #3_PHA 2023, 25 mg/kg
[14] = BALB/c nude, tumor, 25 mg/kg, sheet colon, Capan-2, Capan-2 #3_PHA 2023, 25 mg/kg
[15] = BALB/c nude, tumor, 40 mg/kg, Capan-2, study Capan-2 #3_PHA 2020, 40 mg/kg
[16] = BALB/c nude, tumor, 50 mg/kg, Capan-2, study Capan-2 #3_PHA 2023, 50 mg/kg
[17] = BALB/c nude, tumor, 50 mg/kg, sheet colon, Capan-2, Capan-2 #3_PHA 2023, 50 mg/kg
[18] = BALB/c nude, tumor, 100 mg/kg, Capan-2, study Capan-2 #3_PHA 2023, 100 mg/kg
[19] = BALB/c nude, tumor, 100 mg/kg, sheet colon, Capan-2, Capan-2 #3_PHA 2023, 100 mg/kg
[20] = BALB/c nude, whole blood, po, 3 mg/kg, Capan-2 (3 mg/kg), single dose
[21] = BALB/c nude, whole blood, po, 10 mg/kg, Capan-2 (10 mg/kg), single dose
[22] = BALB/c nude, whole blood, po, 25 mg/kg, Capan-2 (25 mg/kg), single dose
[23] = Balb/c nude, whole blood, po, 25 mg/kg, LU99-luc IC #2 (25 mg/kg), single dose

SMILES: CCn1c(-c2cc(N3CCN(C)CC3)cnc2[C@H](C)OC)c2c3cc(ccc31)-c1csc(n1)C[C@H](NC(=O)[C@H]1C[C@@H]1C)C(=O)N1CCC[C@H](N1)C(=O)OCC(C)(C)C2 [RMC-6236]
- concentration at 2 h (BALB/c nude, colon, 3 mg/kg, sheet colon, Capan-2, Capan-2 #3_PHA 2023, 3 mg/kg): 1370 nM
- concentration at 2 h (BALB/c nude, colon, 25 mg/kg, sheet colon, Capan-2, Capan-2 #3_PHA 2023, 25 mg/kg): 5810 nM
- concentration at 24 h (BALB/c nude, colon, 50 mg/kg, sheet colon, Capan-2, Capan-2 #3_PHA 2023, 50 mg/kg): 147 nM
- concentration at 24 h (BALB/c nude, colon, 100 mg/kg, sheet colon, Capan-2, Capan-2 #3_PHA 2023, 100 mg/kg): 531 nM
- concentration at 2 h [1]: 175 nM
- concentration at 4 h [1]: 255 nM
- concentration at 8 h [1]: 195 nM
- concentration at 24 h [1]: 48.3 nM
- concentration at 2 h [2]: 469 nM
- concentration at 4 h [2]: 883 nM
- concentration at 8 h [2]: 1080 nM
- concentration at 24 h [2]: 219 nM
- concentration at 48 h [2]: 41.6 nM
- concentration at 2 h [3]: 1640 nM
- concentration at 4 h [3]: 2370 nM
- concentration at 8 h [3]: 1360 nM
- concentration at 24 h [3]: 512 nM
- concentration at 48 h [3]: 147 nM
- concentration at 2 h [4]: 5540 nM
- concentration at 4 h [4]: 7670 nM
- concentration at 8 h [4]: 4410 nM
- concentration at 24 h [4]: 1110 nM
- concentration at 48 h [4]: 276 nM
- concentration at 2 h [5]: 12300 nM
- concentration at 8 h [5]: 6560 nM
- concentration at 24 h [5]: 2500 nM
- Kp (BALB/c nude, 3 mg/kg, Capan-2 (3 mg/kg), single dose): 3.3
- Kp (BALB/c nude, 10 mg/kg, Capan-2 (10 mg/kg), single dose): 4.6
- Kp (BALB/c nude, 25 mg/kg, Capan-2 (25 mg/kg), single dose): 5.8
- concentration at 2 h [6]: 15.2 nM
- concentration at 8 h [6]: 14.8 nM
- concentration at 24 h [6]: 5.5 nM
- concentration at 2 h [7]: 314 nM
- concentration at 8 h [7]: 136 nM
- concentration at 24 h [7]: 67 nM
- concentration at 48 h [7]: 22 nM
- concentration at 2 h [8]: 148 nM
- concentration at 4 h [8]: 290 nM
- concentration at 8 h [8]: 231 nM
- concentration at 24 h [8]: 109 nM
- concentration at 48 h [8]: 48.6 nM
- concentration at 8 h (BALB/c nude, tumor, 3 mg/kg, sheet colon, Capan-2, Capan-2 #3_PHA 2023, 3 mg/kg): 567 nM
- concentration at 2 h [9]: 671 nM
- concentration at 8 h [9]: 829 nM
- concentration at 24 h [9]: 406 nM
- concentration at 48 h [9]: 101 nM
- concentration at 2 h [10]: 630 nM
- concentration at 4 h [10]: 1230 nM
- concentration at 8 h [10]: 1120 nM
- concentration at 24 h [10]: 563 nM
- concentration at 48 h [10]: 142 nM
- concentration at 4 h [11]: 3110 nM
- concentration at 8 h [11]: 1860 nM
- concentration at 24 h [11]: 40.6 nM
- concentration at 2 h [12]: 2200 nM
- concentration at 8 h [12]: 2400 nM
- concentration at 24 h [12]: 1250 nM
- concentration at 2 h [13]: 2210 nM
- concentration at 4 h [13]: 3050 nM
- concentration at 8 h [13]: 2290 nM
- concentration at 24 h [13]: 1130 nM
- concentration at 4 h [14]: 6440 nM
- concentration at 8 h [14]: 3260 nM
- concentration at 2 h [15]: 3660 nM
- concentration at 8 h [15]: 3360 nM
- concentration at 24 h [15]: 1740 nM
- concentration at 2 h [16]: 4650 nM
- concentration at 4 h [16]: 5600 nM
- concentration at 8 h [16]: 5310 nM
- concentration at 24 h [16]: 2520 nM
- concentration at 2 h [17]: 21800 nM
- concentration at 4 h [17]: 10600 nM
- concentration at 2 h [18]: 10400 nM
- concentration at 4 h [18]: 17300 nM
- concentration at 8 h [18]: 7500 nM
- concentration at 24 h [18]: 4270 nM
- concentration at 48 h [18]: 1150 nM
- concentration at 2 h [19]: 25300 nM
- concentration at 4 h [19]: 30100 nM
- half-life (BALB/c nude, tumor, po, 3 mg/kg, Capan-2 (3 mg/kg), single dose, read-out: Tumor t1/2 (converted)): 16.6 h
- half-life (BALB/c nude, tumor, po, 10 mg/kg, Capan-2 (10 mg/kg), single dose, read-out: Tumor t1/2 (converted)): 15.7 h
- half-life (BALB/c nude, tumor, po, 25 mg/kg, Capan-2 (25 mg/kg), single dose, read-out: Tumor t1/2 (converted)): 14 h
- Cmax [20]: 0.252 µg/mL
- AUC(0-t) [20]: 1.56 µg·h/mL
- Cmax [21]: 0.95 µg/mL
- AUC(0-t) [21]: 5.09 µg·h/mL
- half-life (BALB/c nude, whole blood, po, 10 mg/kg, Capan-2 (10 mg/kg), single dose, read-out: Blood t1/2 (converted)): 3.77 h
- Cmax [22]: 2.92 µg/mL
- AUC(0-t) [22]: 11.6 µg·h/mL
- half-life (BALB/c nude, whole blood, po, 25 mg/kg, Capan-2 (25 mg/kg), single dose, read-out: Blood t1/2 (converted)): 2.77 h
- half-life (Balb/c nude, tumor (intracranial), po, 25 mg/kg, LU99-luc IC (25 mg/kg), intracranial tumor, read-out: Tumor t1/2 (converted)): 16.1 h
- half-life (Balb/c nude, tumor (subcutaneous xenograft), sc, 25 mg/kg, LU99-luc SC (25 mg/kg), subcutaneous xenograft tumor, read-out: Tumor t1/2 (converted)): 25.3 h
- Cmax [23]: 2.02 µg/mL
- AUC(0-t) [23]: 14 µg·h/mL
- Cmax (Balb/c nude, whole blood, po, 25 mg/kg, LU99-luc IC (25 mg/kg), single dose): 2.5 µg/mL
